From patent US12122763B2, “Substituted piperidines for androgen receptor degradation” (UBIX THERAPEUTICS, INC., priority 2020, dated 2024)

Molecular target: T1, Androgen Receptor (AR) protein (Homo sapiens, UniProt P10275, T878A)
T1 construct: endogenous in cells; host or cells: LNCaP
Test: Androgen Receptor (AR) protein degradation assay in LNCaP cells, western blotting
Format: cell-based
Details: 20 h; for inhibition at 0.01 µM: 0.01 μM compound; for inhibition at 0.1 µM: 0.1 μM compound; for inhibition at 1 µM: 1 μM compound; for inhibition at 10 µM: 10 μM compound
Procedure, shortened: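 LNCaP prostate cancer cells were cultured 3 days, then treated with compound for 20 h. Lysates in 1% SDS buffer were normalised by BCA, and 8 μg protein was run on 4–12% Bis-Tris gels. AR was immunoblotted with chemiluminescence, using GAPDH/β-actin as loading controls.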

T1 sequence (P10275 whole entry T878A): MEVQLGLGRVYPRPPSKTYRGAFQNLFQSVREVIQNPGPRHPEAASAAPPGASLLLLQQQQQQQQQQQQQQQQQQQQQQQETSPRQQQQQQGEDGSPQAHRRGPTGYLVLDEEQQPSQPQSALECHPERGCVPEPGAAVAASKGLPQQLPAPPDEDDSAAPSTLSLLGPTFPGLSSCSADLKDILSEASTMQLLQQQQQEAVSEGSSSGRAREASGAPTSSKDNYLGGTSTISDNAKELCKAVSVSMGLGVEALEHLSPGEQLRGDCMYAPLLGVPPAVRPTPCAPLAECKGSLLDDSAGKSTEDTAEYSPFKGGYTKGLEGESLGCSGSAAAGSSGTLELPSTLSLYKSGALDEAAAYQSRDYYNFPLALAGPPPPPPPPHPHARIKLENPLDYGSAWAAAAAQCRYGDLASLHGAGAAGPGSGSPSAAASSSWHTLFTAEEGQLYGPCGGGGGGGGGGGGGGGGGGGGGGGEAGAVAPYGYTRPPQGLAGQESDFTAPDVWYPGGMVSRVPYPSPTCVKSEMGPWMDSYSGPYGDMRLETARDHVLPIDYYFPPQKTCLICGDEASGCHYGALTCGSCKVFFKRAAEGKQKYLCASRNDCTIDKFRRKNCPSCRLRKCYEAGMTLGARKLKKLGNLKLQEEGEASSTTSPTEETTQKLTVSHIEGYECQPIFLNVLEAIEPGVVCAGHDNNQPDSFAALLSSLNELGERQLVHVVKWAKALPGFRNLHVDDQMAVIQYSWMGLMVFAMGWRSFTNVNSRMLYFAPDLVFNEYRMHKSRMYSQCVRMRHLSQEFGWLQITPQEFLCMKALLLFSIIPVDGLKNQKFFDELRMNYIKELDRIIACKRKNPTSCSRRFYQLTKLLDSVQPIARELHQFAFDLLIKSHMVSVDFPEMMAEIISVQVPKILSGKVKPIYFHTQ
T1 sequence (Q96SW2 whole entry partner): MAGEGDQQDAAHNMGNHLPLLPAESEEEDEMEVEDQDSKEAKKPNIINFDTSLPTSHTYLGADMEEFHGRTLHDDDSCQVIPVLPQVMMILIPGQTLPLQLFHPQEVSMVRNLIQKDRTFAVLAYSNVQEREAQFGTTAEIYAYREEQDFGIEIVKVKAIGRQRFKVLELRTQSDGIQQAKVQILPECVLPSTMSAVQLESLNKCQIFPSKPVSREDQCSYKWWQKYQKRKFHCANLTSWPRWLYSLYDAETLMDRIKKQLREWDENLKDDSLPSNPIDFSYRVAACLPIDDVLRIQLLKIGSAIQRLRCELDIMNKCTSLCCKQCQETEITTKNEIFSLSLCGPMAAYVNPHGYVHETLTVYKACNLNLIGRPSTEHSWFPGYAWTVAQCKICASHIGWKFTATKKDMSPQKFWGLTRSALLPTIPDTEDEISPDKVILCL

Structure (SMILES)	inhibition at 0.01 µM [%]	inhibition at 0.1 µM [%]	inhibition at 1 µM [%]	inhibition at 10 µM [%]
N#Cc1ccc(N2CCC(C(=O)Nc3ccc(N4CCC(CN5CCN(C6CCN(c7ccc(C(=O)NC8CCC(=O)NC8=O)nc7)CC6)CC5)CC4)cn3)CC2)cc1C(F)(F)F (centres unmarked) [Example 105, 5-(4-(4-((1-(6-(1-(4-cyano-3-(trifluoromethyl)phenyl)piperidine-4-carboxamido)pyridin-3-yl)piperidin-4-yl)methyl)piperazin-1-yl)piperidin-1-yl)-N-(2,6-dioxopiperidin-3-yl)picolinamide]	43	82	92	
N#Cc1ccc(N2CCC(C(=O)Nc3ccc(N4CCC(CN5CCN(CC6CCN(c7ccc(C(=O)NC8CCC(=O)NC8=O)nc7)CC6)CC5)CC4)cn3)CC2)cc1C(F)(F)F (centres unmarked) [Example 106, 5-(4-((4-((1-(6-(1-(4-cyano-3-(trifluoromethyl)phenyl)piperidine-4-carboxamido)pyridin-3-yl)piperidin-4-yl)methyl)piperazin-1-yl)methyl)piperidin-1-yl)-N-(2,6-dioxopiperidin-3-yl)picolinamide]	32	86	96	
N#Cc1ccc(N2CCC(C(=O)Nc3ccc(N4CCC(CCN5CCN(c6ccc(C(=O)NC7CCC(=O)NC7=O)nc6)CC5)CC4)cn3)CC2)cc1C(F)(F)F (centres unmarked) [Example 107, 5-(4-(2-(1-(6-(1-(4-cyano-3-(trifluoromethyl)phenyl)piperidine-4-carboxamido)pyridin-3-yl)piperidin-4-yl)ethyl)piperazin-1-yl)-N-(2,6-dioxopiperidin-3-yl)picolinamide]	44	85	93	
C[C@@H]1CN(CC2CCN(c3ccc(C(=O)NC4CCC(=O)NC4=O)nc3)CC2)CCN1CC1CCN(c2ccc(NC(=O)C3CCN(c4ccc(C#N)c(C(F)(F)F)c4)CC3)nc2)CC1 (stereo partly drawn) [Example 108, 5-(4-(((R)-4-((1-(6-(1-(4-cyano-3-(trifluoromethyl)phenyl)piperidine-4-carboxamido)pyridin-3-yl)piperidin-4-yl)methyl)-3-methylpiperazin-1-yl)methyl)piperidin-1-yl)-N-(2,6-dioxopiperidin-3-yl)picolinamide]	51	85	89	
C[C@H]1CN(CC2CCN(c3ccc(C(=O)NC4CCC(=O)NC4=O)nc3)CC2)CCN1CC1CCN(c2ccc(NC(=O)C3CCN(c4ccc(C#N)c(C(F)(F)F)c4)CC3)nc2)CC1 (stereo partly drawn) [Example 109, 5-(4-(((S)-4-((1-(6-(1-(4-cyano-3-(trifluoromethyl)phenyl)piperidine-4-carboxamido)pyridin-3-yl)piperidin-4-yl)methyl)-3-methylpiperazin-1-yl)methyl)piperidin-1-yl)-N-(2,6-dioxopiperidin-3-yl)picolinamide]	30	82	83	
CN(CCN1CCN(c2ccc3c(c2)C(=O)N(C2CCC(=O)NC2=O)C3=O)CC1)CC1CCN(c2ccc(NC(=O)C3CCN(c4ccc(C#N)c(C(F)(F)F)c4)CC3)nc2)CC1 (centres unmarked) [Example 110, 1-(4-cyano-3-(trifluoromethyl)phenyl)-N-(5-(4-(((2-(4-(2-(2,6-dioxopiperidin-3-yl)-1,3-dioxoisoindolin-5-yl)piperazin-1-yl)ethyl)(methyl)amino)methyl)piperidin-1-yl)pyridin-2-yl)piperidine-4-carboxamide]	56	89	88	
N#Cc1ccc(N2CCC(C(=O)Nc3ccc(N4CCN(C(=O)CCCCCNc5ccc6c(c5)C(=O)N(C5CCC(=O)NC5=O)C6=O)CC4)cn3)CC2)cc1C(F)(F)F (centres unmarked) [Example 111, 1-(4-cyano-3-(trifluoromethyl)phenyl)-N-(5-(4-(6-((2-(2,6-dioxopiperidin-3-yl)-1,3-dioxoisoindolin-5-yl)amino)hexanoyl)piperazin-1-yl)pyridin-2-yl)piperidine-4-carboxamide]	29	70	67	67
N#Cc1ccc(N2CCC(C(=O)Nc3ccc(N4CCN(C(=O)CCCCCNc5ccc6c(c5)C(=O)N(C5CCC(=O)NC5=O)C6=O)CC4)cn3)CC2)cc1Cl (centres unmarked) [Example 112, 1-(3-chloro-4-cyanophenyl)-N-(5-(4-(6-((2-(2,6-dioxopiperidin-3-yl)-1,3-dioxoisoindolin-5-yl)amino)hexanoyl)piperazin-1-yl)pyridin-2-yl)piperidine-4-carboxamide]	9	55	50	48
N#Cc1ccc(N2CCC(C(=O)Nc3ccc(N4CCN(CCCCCOc5ccc6c(c5)C(=O)N(C5CCC(=O)NC5=O)C6=O)CC4)cn3)CC2)cc1C(F)(F)F (centres unmarked) [Example 113, 1-(4-cyano-3-(trifluoromethyl)phenyl)-N-(5-(4-(5-((2-(2,6-dioxopiperidin-3-yl)-1,3-dioxoisoindolin-5-yl)oxy)pentyl)piperazin-1-yl)pyridin-2-yl)piperidine-4-carboxamide]	55	92	87	
N#Cc1ccc(N2CCC(C(=O)Nc3ccc(N4CCN(CCCCCOc5ccc6c(c5)C(=O)N(C5CCC(=O)NC5=O)C6=O)CC4)cn3)CC2)cc1Cl (centres unmarked) [Example 114, 1-(3-chloro-4-cyanophenyl)-N-(5-(4-(5-((2-(2,6-dioxopiperidin-3-yl)-1,3-dioxoisoindolin-5-yl)oxy)pentyl)piperazin-1-yl)pyridin-2-yl)piperidine-4-carboxamide]	41	89	91	
N#Cc1ccc(N2CCC(C(=O)Nc3ccc(N4CCN(CCCCOc5ccc6c(c5)C(=O)N(C5CCC(=O)NC5=O)C6=O)CC4)cn3)CC2)cc1C(F)(F)F (centres unmarked) [Example 115, 1-(4-cyano-3-(trifluoromethyl)phenyl)-N-(5-(4-(4-((2-(2,6-dioxopiperidin-3-yl)-1,3-dioxoisoindolin-5-yl)oxy)butyl)piperazin-1-yl)pyridin-2-yl)piperidine-4-carboxamide]	18	89	87	
N#Cc1ccc(N2CCC(C(=O)Nc3ccc(N4CCN(CCCCOc5ccc6c(c5)C(=O)N(C5CCC(=O)NC5=O)C6=O)CC4)cn3)CC2)cc1Cl (centres unmarked) [Example 116, 1-(3-chloro-4-cyanophenyl)-N-(5-(4-(4-((2-(2,6-dioxopiperidin-3-yl)-1,3-dioxoisoindolin-5-yl)oxy)butyl)piperazin-1-yl)pyridin-2-yl)piperidine-4-carboxamide]	24	43	53	
N#Cc1ccc(N2CCC(C(=O)Nc3ccc(N4CCN(CCOC5CCN(c6ccc7c(c6)C(=O)N(C6CCC(=O)NC6=O)C7=O)CC5)CC4)cn3)CC2)cc1C(F)(F)F (centres unmarked) [Example 117, 1-(4-cyano-3-(trifluoromethyl)phenyl)-N-(5-(4-(2-((1-(2-(2,6-dioxopiperidin-3-yl)-1,3-dioxoisoindolin-5-yl)piperidin-4-yl)oxy)ethyl)piperazin-1-yl)pyridin-2-yl)piperidine-4-carboxamide]	35	84	94	
N#Cc1ccc(N2CCC(C(=O)Nc3ccc(N4CCN(CCOC5CCN(c6ccc7c(c6)C(=O)N(C6CCC(=O)NC6=O)C7=O)CC5)CC4)cn3)CC2)cc1Cl (centres unmarked) [Example 118, 1-(3-chloro-4-cyanophenyl)-N-(5-(4-(2-((1-(2-(2,6-dioxopiperidin-3-yl)-1,3-dioxoisoindolin-5-yl)piperidin-4-yl)oxy)ethyl)piperazin-1-yl)pyridin-2-yl)piperidine-4-carboxamide]	34	62	88	
N#Cc1ccc(N2CCC(C(=O)Nc3ccc(N4CCN(CCC5CCN(c6ccc7c(c6)C(=O)N(C6CCC(=O)NC6=O)C7=O)CC5)CC4)cn3)CC2)cc1C(F)(F)F (centres unmarked) [Example 119, 1-(4-cyano-3-(trifluoromethyl)phenyl)-N-(5-(4-(2-(1-(2-(2,6-dioxopiperidin-3-yl)-1,3-dioxoisoindolin-5-yl)piperidin-4-yl)ethyl)piperazin-1-yl)pyridin-2-yl)piperidine-4-carboxamide]	21	90	26	
N#Cc1ccc(N2CCC(C(=O)Nc3ccc(N4CCN(CCC5CCN(c6ccc7c(c6)C(=O)N(C6CCC(=O)NC6=O)C7=O)CC5)CC4)cn3)CC2)cc1Cl (centres unmarked) [Example 120, 1-(3-chloro-4-cyanophenyl)-N-(5-(4-(2-(1-(2-(2,6-dioxopiperidin-3-yl)-1,3-dioxoisoindolin-5-yl)piperidin-4-yl)ethyl)piperazin-1-yl)pyridin-2-yl)piperidine-4-carboxamide]	0	88	96	
N#Cc1ccc(N2CCC(C(=O)Nc3ccc(N4CC5(CCN(CC6CCN(c7ccc8c(c7)C(=O)N(C7CCC(=O)NC7=O)C8=O)CC6)CC5)C4)cn3)CC2)cc1C(F)(F)F (centres unmarked) [Example 121, 1-(4-cyano-3-(trifluoromethyl)phenyl)-N-(5-(7-((1-(2-(2,6-dioxopiperidin-3-yl)-1,3-dioxoisoindolin-5-yl)piperidin-4-yl)methyl)-2,7-diazaspiro[3.5]nonan-2-yl)pyridin-2-yl)piperidine-4-carboxamide]	81	98	98	
N#Cc1ccc(N2CCC(C(=O)Nc3ccc(N4CC5(CCN(CC6CCN(c7ccc8c(c7)C(=O)N(C7CCC(=O)NC7=O)C8=O)CC6)CC5)C4)cn3)CC2)cc1Cl (centres unmarked) [Example 122, 1-(3-chloro-4-cyanophenyl)-N-(5-(7-((1-(2-(2,6-dioxopiperidin-3-yl)-1,3-dioxoisoindolin-5-yl)piperidin-4-yl)methyl)-2,7-diazaspiro[3.5]nonan-2-yl)pyridin-2-yl)piperidine-4-carboxamide]	71	76	74	
